Test [1] deals with T1, Tyrosinase (tyrosinase mushroom).
T1 construct: gene PPO3; native mushroom tyrosinase preparation, isoenzyme mixture not resolved; only 'mushroom' given
Description: spectrophotometric dopachrome assay, […] nm. The format is biochemical, Agaricus bisporus. To be noted: L-DOPA, pH 6.8, 37 °C, 10 min preincubation.

For test [2], the target named is T2, BChE (butyrylcholinesterase from horse serum) (Equus caballus, UniProt P81908).
T2 construct: native enzyme preparation from horse serum
Description: Ellman assay, […] nm. The format is biochemical. The note with it: butyrylthiocholine chloride, DTNB, pH 8.0, room conditions, 15 min preincubation.

In test [3] the target is AChE (acetylcholinesterase from eel) (Electrophorus electricus, UniProt O42275). To be noted: acetylthiocholine-type substrate (AcI [sic]), DTNB, pH 8.0, 25 °C, 15 min preincubation.
Chain of AChE (acetylcholinesterase from eel) (O42275 24-633): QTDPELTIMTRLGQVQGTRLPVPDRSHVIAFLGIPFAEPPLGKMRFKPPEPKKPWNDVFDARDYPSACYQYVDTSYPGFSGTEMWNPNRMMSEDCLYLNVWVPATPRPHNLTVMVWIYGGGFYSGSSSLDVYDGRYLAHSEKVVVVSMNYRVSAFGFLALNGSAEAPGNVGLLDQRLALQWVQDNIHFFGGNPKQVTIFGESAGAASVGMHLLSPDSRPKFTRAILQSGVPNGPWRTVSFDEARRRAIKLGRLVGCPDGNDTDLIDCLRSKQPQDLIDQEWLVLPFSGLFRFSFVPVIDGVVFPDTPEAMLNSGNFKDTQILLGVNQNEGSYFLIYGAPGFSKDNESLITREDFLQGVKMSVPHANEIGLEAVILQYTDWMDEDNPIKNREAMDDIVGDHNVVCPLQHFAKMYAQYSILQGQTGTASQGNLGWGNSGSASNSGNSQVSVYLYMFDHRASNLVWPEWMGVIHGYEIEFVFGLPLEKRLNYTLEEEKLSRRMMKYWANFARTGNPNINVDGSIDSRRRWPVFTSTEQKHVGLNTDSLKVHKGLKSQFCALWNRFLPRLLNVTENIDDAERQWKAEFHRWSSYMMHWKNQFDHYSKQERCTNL

T2 sequence (P81908 whole entry): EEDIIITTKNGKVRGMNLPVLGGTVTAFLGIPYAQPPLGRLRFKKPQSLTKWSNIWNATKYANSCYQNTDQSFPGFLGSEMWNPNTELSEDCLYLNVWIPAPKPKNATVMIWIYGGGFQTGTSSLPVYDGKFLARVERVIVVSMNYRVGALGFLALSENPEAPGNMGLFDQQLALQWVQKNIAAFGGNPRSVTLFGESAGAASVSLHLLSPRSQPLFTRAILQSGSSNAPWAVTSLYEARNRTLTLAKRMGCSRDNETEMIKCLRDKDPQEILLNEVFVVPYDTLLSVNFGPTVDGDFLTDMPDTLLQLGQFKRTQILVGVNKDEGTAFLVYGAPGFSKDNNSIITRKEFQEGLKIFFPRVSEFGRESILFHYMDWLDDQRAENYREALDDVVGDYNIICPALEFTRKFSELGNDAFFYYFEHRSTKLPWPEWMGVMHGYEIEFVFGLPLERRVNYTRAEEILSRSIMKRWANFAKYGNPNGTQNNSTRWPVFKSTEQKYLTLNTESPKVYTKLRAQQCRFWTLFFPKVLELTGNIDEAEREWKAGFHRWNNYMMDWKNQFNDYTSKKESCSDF

`COc1ccc(C(=O)NN=Cc2cc(OC)c(O)c(OC)c2)cc1` [7e, N′-(4-hydroxy-3,5-dimethoxybenzylidene)-4-methoxybenzohydrazide]: in test [1], the “Tyrosinase activity (IC50 mM/mL)” value was 10.15 ± 0.04 mM/mL. In addition, in test [2], the “Anticholinesterase Activity / BChE assay (IC50 μM/mL)” value is 96.33 ± 0.61 μM/mL. Besides, the “Anticholinesterase Activity / AChE assay (IC50 μM/mL) (IC50 μM/mL)” value (“Anticholinesterase Activity / AChE assay” below) in test [3] turned out to be 75.01 ± 0.94 μM/mL.

Consider `COc1cc(C=NNC(=O)c2ccccc2)cc(OC)c1O` [7a, N′-(4-hydroxy-3,5-dimethoxybenzylidene)benzohydrazide], for which the “Tyrosinase activity (IC50 mM/mL)” value in test [1] was 88.73 ± 0.26 mM/mL. The “Anticholinesterase Activity / BChE assay (IC50 μM/mL)” value in test [2] is on record as 122.04 ± 0.87 μM/mL. For the same compound, in test [3], the “Anticholinesterase Activity / AChE assay” value came out at 101.04 ± 0.49 μM/mL.

Take `COc1cc(C=NNC(=O)c2cccc(C(F)(F)F)c2)cc(OC)c1O` [7h, N′-(4-hydroxy-3,5-dimethoxybenzylidene)-3-(trifluoromethyl)benzohydrazide]: in test [1], the “Tyrosinase activity (IC50 mM/mL)” value amounted to 56.88 ± 0.37 mM/mL. In addition, the “Anticholinesterase Activity / BChE assay (IC50 μM/mL)” value in test [2] worked out at 88.70 ± 0.77 μM/mL. Moreover, in test [3], the “Anticholinesterase Activity / AChE assay” value was determined as 73.75 ± 0.34 μM/mL.

Take `COc1cc(C=NNC(=O)c2cc(C(F)(F)F)cc(C(F)(F)F)c2)cc(OC)c1O` [7j, N′-(4-hydroxy-3,5-dimethoxybenzylidene)-3,5-bis-(trifluoromethyl)benzohydrazide]: the “Tyrosinase activity (IC50 mM/mL)” value in test [1] is given as 40.08 ± 0.86 mM/mL. Moreover, the “Anticholinesterase Activity / BChE assay (IC50 μM/mL)” value in test [2] worked out at 57.30 ± 0.87 μM/mL. Further, in test [3], the “Anticholinesterase Activity / AChE assay” value came to 44.83 ± 0.12 μM/mL.

For the compound `COc1cc(C=NNC(=O)c2ccc(Cl)cc2)cc(OC)c1O` [7c, 4-chloro-N′-(4-hydroxy-3,5-dimethoxybenzylidene)benzohydrazide], the “Tyrosinase activity (IC50 mM/mL)” value in test [1] is reported as 70.91 ± 0.24 mM/mL. Besides, the “Anticholinesterase Activity / BChE assay (IC50 μM/mL)” value in test [2] came to 102.87 ± 0.48 μM/mL. Also, in test [3], the “Anticholinesterase Activity / AChE assay” value came to 82.14 ± 0.56 μM/mL.

On to `COc1cc(C=NNC(=O)c2ccccc2OC(F)(F)F)cc(OC)c1O` [7k, N′-(4-hydroxy-3,5-dimethoxybenzylidene)-2-(trifluoromethoxy)benzohydrazide], for which the “Tyrosinase activity (IC50 mM/mL)” value in test [1] was 29.78 ± 0.43 mM/mL. In test [2], the “Anticholinesterase Activity / BChE assay (IC50 μM/mL)” value is on record as 69.18 ± 0.98 μM/mL. Further, in test [3], the “Anticholinesterase Activity / AChE assay” value was 59.31 ± 0.77 μM/mL.

In the case of `COc1cc(C=NNC(=O)c2ccc([N+](=O)[O-])cc2)cc(OC)c1O` [7f, N′-(4-hydroxy-3,5-dimethoxybenzylidene)-4-nitrobenzohydrazide], in test [1], the “Tyrosinase activity (IC50 mM/mL)” value is reported as 18.22 ± 0.35 mM/mL. The “Anticholinesterase Activity / BChE assay (IC50 μM/mL)” value in test [2] is on record as 52.39 ± 0.49 μM/mL. In test [3], the “Anticholinesterase Activity / AChE assay” value stood at 40.07 ± 0.25 μM/mL.

In the case of `COc1cc(C=NNC(=O)c2ccc(OC(F)(F)F)cc2)cc(OC)c1O` [7m, N′-(4-hydroxy-3,5-dimethoxybenzylidene)-4-(trifluoromethoxy)benzohydrazide], the “Tyrosinase activity (IC50 mM/mL)” value in test [1] stood at 36.62 ± 0.56 mM/mL. Further, in test [2], the “Anticholinesterase Activity / BChE assay (IC50 μM/mL)” value is 77.26 ± 0.42 μM/mL. Moreover, in test [3], the “Anticholinesterase Activity / AChE assay” value is given as 62.04 ± 0.39 μM/mL.

For `COc1cc(C=NNC(=O)c2cccc(OC(F)(F)F)c2)cc(OC)c1O` [7l, N′-(4-hydroxy-3,5-dimethoxybenzylidene)-3-(trifluoromethoxy)benzohydrazide], the “Tyrosinase activity (IC50 mM/mL)” value in test [1] stood at 24.30 ± 0.78 mM/mL. For the same compound, the “Anticholinesterase Activity / BChE assay (IC50 μM/mL)” value in test [2] came out at 80.62 ± 0.36 μM/mL. In addition, the “Anticholinesterase Activity / AChE assay” value in test [3] is 68.09 ± 0.02 μM/mL.

`COc1cc(C=NNC(=O)c2ccc(F)cc2)cc(OC)c1O` [7d, 4-fluoro-N′-(4-hydroxy-3,5-dimethoxybenzylidene)benzohydrazide]: the “Tyrosinase activity (IC50 mM/mL)” value in test [1] is on record as 64.38 ± 0.99 mM/mL. In test [2], the “Anticholinesterase Activity / BChE assay (IC50 μM/mL)” value is listed as 109.44 ± 0.09 μM/mL. Besides, the “Anticholinesterase Activity / AChE assay” value in test [3] stood at 88.37 ± 0.11 μM/mL.

Regarding `COc1cc(C=NNC(=O)c2ccc(C(F)(F)F)cc2)cc(OC)c1O` [7i, N′-(4-hydroxy-3,5-dimethoxybenzylidene)-4-(trifluoromethyl)benzohydrazide], the “Tyrosinase activity (IC50 mM/mL)” value in test [1] is on record as 49.73 ± 0.12 mM/mL. Besides, the “Anticholinesterase Activity / BChE assay (IC50 μM/mL)” value in test [2] is on record as 64.09 ± 0.30 μM/mL. Also, the “Anticholinesterase Activity / AChE assay” value in test [3] was found to be 51.08 ± 0.41 μM/mL.

Consider `COc1cc(C=NNC(=O)c2ccc(Br)cc2)cc(OC)c1O` [7b, 4-bromo-N′-(4-hydroxy-3,5-dimethoxybenzylidene)benzohydrazide], for which the “Tyrosinase activity (IC50 mM/mL)” value in test [1] is recorded as 82.08 ± 1.09 mM/mL. Moreover, the “Anticholinesterase Activity / BChE assay (IC50 μM/mL)” value in test [2] amounted to 116.82 ± 0.66 μM/mL. Moreover, the “Anticholinesterase Activity / AChE assay” value in test [3] was found to be 93.00 ± 1.11 μM/mL.

Turning to `COc1cc(C=NNC(=O)c2ccccc2C(F)(F)F)cc(OC)c1O` [7g, N′-(4-hydroxy-3,5-dimethoxybenzylidene)-2-(trifluoromethyl)benzohydrazide], the “Tyrosinase activity (IC50 mM/mL)” value in test [1] is given as 61.07 ± 0.55 mM/mL. Further, in test [2], the “Anticholinesterase Activity / BChE assay (IC50 μM/mL)” value is listed as 83.08 ± 0.34 μM/mL. For the same compound, the “Anticholinesterase Activity / AChE assay” value in test [3] is on record as 70.13 ± 0.89 μM/mL.
